Consider one compound from patent publication US12673921B2, “Substituted fluorine-containing imidazole salt compound, preparation method therefor, pharmaceutical composition thereof and use thereof” (XIAMEN VIVOHEALTHS TECHNOLOGY CO., LTD., priority 2019, dated 2026).

A value given as a limit tells only on which side of the number the result lay.

Data set [1] is described as follows: Liver microsome stability test, Beagle dog liver microsome. The data set is classed as in vitro ADME. The settings on record: microsomes, 0.5 mg protein/mL microsome, 1 μM compound, 37° C., NADPH, read-out: DLM 0.5 T1/2 (min), half life in Beagle dog liver microsome. Here is the method:
The experimental steps were as follows: • 1. Preparation of working solution • 1.1 Intermediate solution: 5 μL of a 10 mM stock solution of sample or control was taken out, and diluted with 495 μl of methanol (Conc.: 100 μM, 99% MeOH). • 1.2 Working solution: 50 μL of the intermediate solution was taken out, and diluted with 450 μL of a 100 mM potassium phosphate buffer (Conc.: 10 μM, 9.9% MeOH). • 2. Preparation of NADPH cofactor
An appropriate amount of NADPH powder was weighed, and dissolved with a MgCl2 (10 mM) solution. • 3. Liver microsome • 3.1 Liver microsome information
• 3.2 Preparation: a microsome working solution with an appropriate concentration was prepared by using a 100 mM potassium phosphate buffer. • 4. Stop solution
Glacial acetonitrile, comprising 100 ng/ml Tolbutamide and 100 ng/ml Labetalol as internal standards. • 5. Experimental procedures • 5.1 10 μL of the working solution of sample or control was added per well to all plates (T0, T5, T10, T20, T30, T60, NCF60), except for the blank group; • 5.2 80 μL of the working solution of microsome was added per well to all plates, followed by incubation for 10 min at 37° C.; • 5.3 10 μL of a 100 mM potassium phosphate buffer was added per well to NCF60, followed by incubation at 37° C. and starting timer 1;
• 5.4 After preheating, 10 μL of NADPH was added per well to each plate, and reaction was started;
Final concentration of each component in the incubation medium:
• 5.6 300 μL of the stop solution was added per well to stop the reaction; • 5.7 The system was shaken for about 10 min; • 5.8 The samples were centrifuged (4000 rpm) at 4° C. for 20 min; • 5.9 To 8 new 96-well plates, 300 μL of HPLC water was added per well, then 100 μL of the supernatant was added, mixed and subjected to LC/MS/MS.
In the above table, HLM 0.5 T1/2 (min) refers to half life (min) of compounds in human liver microsome, DLM 0.5 T1/2 (min) refers to half life (min) of compounds in Beagle dog liver microsome.
For orientation: Liver microsomes are vesicles of endoplasmic reticulum, rich in cytochrome P450 enzymes.

Another data set relates to AMPK. The data set can be described thus: AMPK activity assay at cell level (western blot of p-AMPKα and p-ACC in MEFs). Type of data set: cell-based, mouse. The settings on record: MEF cells, compound 10 nM, 2 h; multiple of the ratio relative to positive control AICAR (3 mM); band brightness by Image J. Here is the method:
The ability of compounds to activate AMPK in mouse embryonic fibroblasts (MEFs) was determined, which could be specifically carried out by detecting the phosphorylation level (p-AMPKα) of threonine at the 172nd position of AMPK and the phosphorylation level (p-ACC) of serine at the 79th position of the susbtrate ACC1/ACC2 of AMPK (FIG. 1 and Table I) by western blot.
The specific method was as follows: • (1) MEFs with loxP insertion sequences or of wild-type were plated in a 6-well plate and cultured in DMEM containing 10% serum. If a gene needed to be knocked out at this time, when the density of the corresponding MEFs with loxP insertion sequences reached about 30%, an adenovirus capable of expressing cre should be added to the culture well followed by further culture for more than 24 h; • (2) When the cell density was close to 90%, the cells were provided with fresh DMEM, at the same time, a compound (final concentration 10 nM) was added to the cells, followed by culture for 2 h, with an equal volume of DMSO as the negative control, and the cells treated with the addition of AICAR (3 mM) as the positive control; • (3) After sucking up the culture solution, the cells were lysed with 200 μL of a cell lysate (its formulation was given below), then the cells were scraped from the culture dish, ultrasonicated, and subjected to low temperature centrifugation at 20000 g for 10 min; • (4) The supernatant and an equal volume of 2*SDS solution (its formulation was given below) were mixed, and subjected to SDS-PAGE in a concentration of 8%, then the protein was transferred to PVDF membrane; each PVDF membrane was blocked with 25 mL of skim milk for 1 h, and then rinsed with TBST buffer (its formulation was given below) 3 times for 10 min each time; • (5) AMPKα subunit primary antibody (Cell Signaling Technology, #2532), primary antibody of phosphothreonine at the 172nd position of AMPK (Cell Signaling Technology, #2535), ACC primary antibody (Cell Signaling Technology, #3662), or primary antibody of phosphoserine at the 79th position of ACC (Cell Signaling Technology, #3661) was diluted in a ratio of 1:1000 with a primary antibody dilution (its formulation was given below), reacted with the PVDF membrane at room temperature for 12 h, and then rinsed 3 times with TBST buffer; • (6) A 1:1000 dilution of HRP-conjugated goat anti-rabbit secondary antibody (Jackson ImmunoResearch, 111-035-003) was added, reacted at room temperature for 1 h, and then rinsed 3 times with TBST buffer; • (7) The PVDF membrane was dried, reacted in an ECL mixture (WesternBright ECL HRP substrate, Advansta) and subjected to exposure with medical X-ray, developed, finally rinsed, dried, and then scanned to obtain data related to AMPK activation.
The formulations of reagents used were: • Cell lysate: 20 mM Tris-base, pH 7.5, 150 mM NaCl, 1 mM EDTA, 1 mM EGTA, 2.5 mM Sodium pyrophosphate, 1 mM β-glycerolphosphate, 1% Triton X-100 (v/v); • 2*SDS solution: 20% Glycerol (v/v), 4% SDS (m/v), 10% β-mecaptoethanol (v/v), 0.01% Bromophenol blue (m/v); • TBST buffer: 4.84% Tris-base (m/v), 8% NaCl (m/v), 0.1% Tween-20 (v/v); • Primary antibody dilution: TBST buffer containing 5% BSA (v/v).
(In western blotting, separated proteins are transferred to a membrane and probed.)

As for `Cc1n(CCCCCCCCCCCC(F)(F)C(F)(F)C(F)(F)C(F)(F)C(F)(F)F)cc[n+]1Cc1c(Cl)cccc1Cl.[Cl-]` [IB-33], in data set [1], the half-life at 1 μM was above 145 min. For the same compound, in the data set on AMPK, the “Degree of AMPK activation, p-ACC/ACC” value is listed as 0.94 and the “Degree of AMPK activation, p-AMPKα/AMPK” value is 0.54.
